# Data from patent US20210332436A1, “STEM CELL-BASED MULTIPLEX METHODS AND COMPOSITIONS” (MEMORIAL SLOAN-KETTERING CANCER CENTER, priority 2018, published 2021).
# How the values were obtained:
# Day 20 PFC cultures = assay: Single genotype analysis of WNT responsiveness during PFC development (proliferation Ki67/DAPI and cell-cycle re-entry Ki67+EdU+/Ki67+); assay type: cell-based, human
# Procedure: FIGS. 15a-15d provide additional data related to WNT assays. FIG. 15a provides PFC WNT response of autism lines relative to a negative control (UMOD). WNT response is measured by relative change in stem cell enrichment versus an untreated control. Red bars indicate significant increases or decreases in WNT response (FDR<0.05). FIG. 15b provides efficiency of neural crest specification relative to a negative control (UMOD). Red bars indicate significant increases or decreases in WNT response (FDR<0.05). FIG. 15c provides schematic of quantification for zebrafish jaw development at 7 dpf. A straight line is drawn from the top of the eyes, and second line is then drawn to the middle of the upper jaw. The angle between the two lines (0) is measured using ImageJ. A cut-off value of −1 s.d. (red line) from the mean (green line) of the no injection group was used to define hypomorphic animals. Graphs show raw data that underlie the hypomorph quantification in FIG. 3e. p<0.0001 for group differences calculated by non-parametric Kruskall-Wallis test, followed by dunn's test for multiple comparisons CTNNB1 p=0.0007, ANKRD11 p=0.0013, CUL3 p=0.0073, KMT2C p=0.0007. dpf, Days post fertilization. FIG. 15d provides a single genotype analysis of WNT responsiveness during PFC development. […] Day 20 PFC cultures were treated with CHIR99021 (0.6 μM) for 2 days or left untreated. At day 22, cultures were pulsed with EdU using the EdU Click-iT system according to manufacturer protocol (ThermoFisher Scientific C10640). Briefly, cells were treated with EdU for 1 hour, dissociated with Accutase for 30 minutes at 37 C, and passaged onto laminin/fibronectin coated plates at a density of 200,000-400,000 cells/cm2 in the presence of ROCK inhibitor (Y-27632, 10 μM, Tocris 1254). Cell were fixed 18 hours later and fixed for immunocytochemistry. ImageJ was used for cell counting. Images were thresholded to define individual cells (particles) and cells were counted using the analyze particle function.
# [1] = tested on: day 35 MIX30 PFC cultures; assay: Multiplex PFC WNT response assay (CHIR99021 treatment of pooled PFC cultures, stem cell proliferation/enrichment readout); assay type: cell-based, human; conditions: 3 μM for 10 days, vs untreated
# From the text: In addition to probing developmental phenotypes related to cell fate specification and proliferation, the present multiplex platform also allows us to evaluate the cell-type specific activity of key molecular pathways. The WNT/βcatenin pathway is a critical regulator of stem cell proliferation and neurogenesis during cortical development (Hirabayashi et al., Development 131, 2791-2801 (2004); Munji et al., J Neurosci 31, 1676-1687 (2011); Chenn, Organogenesis 4, 76-80 (2008)) and is a central node among a network of autism-related genes (Packer, Mol Psychiatry, (2016); Krumm et al., Trends Neurosci 37, 95-105 (2014); Gilman et al., Neuron 70, 898-907 (2011)). It was therefore tested autism lines for the ability to respond to WNT/βcatenin signaling by treating day 35 MIX30 PFC cultures with the GSK3α/β inhibitor CHIR99021 (3 μM) for 10 days, using stem cell proliferation as an initial readout of WNT activity (Kim et al., Nat Neurosci 12, 1390-1397 (2009)) (FIG. 3a). […] Lineage specificity of the WNT-response phenotype was assessed by differentiating the MIX30 library to CD49d^+ cranial neural crest (CNC) precursors ([…] et al., Nature 531, 105-109 (2016)), whose specification is dependent on WNT/β catenin activity (Dorsky et al., Nature 396, 370-373 (1998)) (FIG. 3c, FIGS. 10d-10f). […] DNA was quantified using a fluorometer (Qubit 3.0, Thermo Q33216). […]
# [2] = 5/5 class 1 lines compared to MEL1, 0.6 μM for 2 days
smiles,measurement,setting,value
Cc1c[nH]c(-c2cnc(NCCNc3ccc(C#N)cn3)nc2-c2ccc(Cl)cc2Cl)n1 [CHIR99021],"proliferation response to CHIR (CHIR/Baseline, Ki67/DAPI)",Day 20 PFC cultures; [2],blunted proliferation response
same,rates of cell-cycle re-entry (Ki67+EdU+/Ki67+) in response to CHIR,Day 20 PFC cultures; [2],blunted response
same,rates of cell-cycle re-entry (Ki67+EdU+/Ki67+) in response to CHIR,"Day 20 PFC cultures; control lines, 0.6 μM for 2 days",increased rates of cell-cycle re-entry
same,stem cell proliferation (readout of WNT activity),[1],enhanced stem cell proliferation
